Laboratory results as given in patent publication US10251395B2, “Substituted furano-/thienocycloalkylamino-2-pyrimidine derivatives and use thereof for controlling undesired plant growth” (Bayer CropScience Aktiengesellschaft, priority 2015, dated 2019).

Experiments:
[1] = test system: Matricaria inodora; experiment: Post-emergence herbicidal effect; assay type: in vivo; settings: assessed visually after about 3 weeks vs untreated controls
How it was run: (§1)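 Herbicidal effect was rated visually roughly 3 weeks after foliar treatment, as % versus untreated plants, with 0% meaning the same as controls and 100% meaning dead. Plants were treated at the one-leaf stage in the greenhouse with aqueous WP or EC sprays at 600–800 L/ha containing 0.2% wetter.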

[2] = test system: Polygonum convolvulus; experiment: Post-emergence herbicidal effect; assay type: in vivo; settings: assessed visually after about 3 weeks vs untreated controls
How it was run: as §1

[3] = test system: Stellaria media; experiment: Post-emergence herbicidal effect; assay type: in vivo; settings: assessed visually after about 3 weeks vs untreated controls
How it was run: as §1

[4] = test system: Echinochloa crus-galli; experiment: Post-emergence herbicidal effect; assay type: in vivo; settings: assessed visually after about 3 weeks vs untreated controls
How it was run: as §1

[5] = test system: Alopecurus myosuroides; experiment: Post-emergence herbicidal effect; assay type: in vivo; settings: 320 g/ha, assessed visually after about 3 weeks vs untreated controls
How it was run: as §1

[6] = test system: Abutilon theophrasti; experiment: Post-emergence herbicidal effect; assay type: in vivo; settings: assessed visually after about 3 weeks vs untreated controls
How it was run: as §1

[7] = test system: Ipomoea purpurea; experiment: Post-emergence herbicidal effect; assay type: in vivo; settings: assessed visually after about 3 weeks vs untreated controls
How it was run: as §1

[8] = test system: Avena fatua; experiment: Post-emergence herbicidal effect; assay type: in vivo; settings: 320 g/ha, assessed visually after about 3 weeks vs untreated controls
How it was run: as §1

[9] = test system: Amaranthus retroflexus; experiment: Post-emergence herbicidal effect; assay type: in vivo; settings: assessed visually after about 3 weeks vs untreated controls
How it was run: as §1

[10] = test system: Lolium multiflorum; experiment: Post-emergence herbicidal effect; assay type: in vivo; settings: assessed visually after about 3 weeks vs untreated controls
How it was run: as §1

[11] = test system: Setaria viridis; experiment: Post-emergence herbicidal effect; assay type: in vivo; settings: assessed visually after about 3 weeks vs untreated controls
How it was run: as §1

[12] = test system: Viola tricolor; experiment: Post-emergence herbicidal effect; assay type: in vivo; settings: assessed visually after about 3 weeks vs untreated controls
How it was run: as §1

[13] = logP (HCOOH); assay type: physicochemical; settings: HCOOH
Text: Table 2 (physicochemical characterization of selected synthesis examples)

[14] = test system: Matricaria inodora; experiment: Pre-emergence herbicidal effect; assay type: in vivo; settings: scored visually after 3 weeks
How it was run: (§2)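 Pre-emergence soil-surface application of compound as WP or EC in water (600 to 800 L/ha, 0.2% wetting agent) to freshly sown, soil-covered seeds in sandy loam. After 3 weeks under greenhouse conditions, percent activity rated by eye versus untreated plants, from 0% (no effect) to 100% (death).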

[15] = test system: Polygonum convolvulus; experiment: Pre-emergence herbicidal effect; assay type: in vivo; settings: scored visually after 3 weeks
How it was run: as §2

[16] = test system: Stellaria media; experiment: Pre-emergence herbicidal effect; assay type: in vivo; settings: scored visually after 3 weeks
How it was run: as §2

[17] = test system: Echinochloa crus-galli; experiment: Pre-emergence herbicidal effect; assay type: in vivo; settings: scored visually after 3 weeks
How it was run: as §2

[18] = test system: Alopecurus myosuroides; experiment: Pre-emergence herbicidal effect; assay type: in vivo; settings: scored visually after 3 weeks
How it was run: as §2

[19] = test system: Abutilon theophrasti; experiment: Pre-emergence herbicidal effect; assay type: in vivo; settings: Dosage 320 g/ha, scored visually after 3 weeks
How it was run: as §2

[20] = test system: Avena fatua; experiment: Pre-emergence herbicidal effect; assay type: in vivo; settings: Dosage 320 g/ha, scored visually after 3 weeks
How it was run: as §2

[21] = test system: Veronica persica; experiment: Pre-emergence herbicidal effect; assay type: in vivo; settings: scored visually after 3 weeks
How it was run: as §2

[22] = test system: Amaranthus retroflexus; experiment: Pre-emergence herbicidal effect; assay type: in vivo; settings: scored visually after 3 weeks
How it was run: as §2

[23] = test system: Lolium multiflorum; experiment: Pre-emergence herbicidal effect; assay type: in vivo; settings: scored visually after 3 weeks
How it was run: as §2

[24] = test system: Setaria viridis; experiment: Pre-emergence herbicidal effect; assay type: in vivo; settings: scored visually after 3 weeks
How it was run: as §2

[25] = test system: Viola tricolor; experiment: Pre-emergence herbicidal effect; assay type: in vivo; settings: scored visually after 3 weeks
How it was run: as §2

[26] = test system: Veronica persica; experiment: Post-emergence herbicidal effect; assay type: in vivo; settings: 320 g/ha, assessed visually after about 3 weeks vs untreated controls
How it was run: as §1

[27] = test system: Cyperus esculentus; experiment: Pre-emergence herbicidal effect; assay type: in vivo; settings: Dosage 320 g/ha, scored visually after 3 weeks
How it was run: as §2

Nc1nc(NC2CCc3sc(Cl)cc32)ncc1C(F)(F)F (racemic) [compound 256]
post-emergence efficacy MATIN ([1]; 80 g/ha): 100% | post-emergence efficacy MATIN ([1]; 320 g/ha): 100% | post-emergence efficacy POLCO ([2]; 80 g/ha): 90% | post-emergence efficacy POLCO ([2]; 320 g/ha): 90% | post-emergence efficacy STEME ([3]; 80 g/ha): 100% | post-emergence efficacy STEME ([3]; 320 g/ha): 100% | post-emergence efficacy ECHCG ([4]; 80 g/ha): 100% | post-emergence efficacy ECHCG ([4]; 320 g/ha): 100% | post-emergence efficacy ALOMY [5]: 90% | post-emergence efficacy ABUTH ([6]; 80 g/ha): 90% | post-emergence efficacy ABUTH ([6]; 320 g/ha): 90% | post-emergence efficacy PHBPU ([7]; 320 g/ha): 100% | post-emergence efficacy AVEFA [8]: 70% | post-emergence efficacy AMARE ([9]; 80 g/ha): 100% | post-emergence efficacy AMARE ([9]; 320 g/ha): 100% | post-emergence efficacy LOLMU ([10]; 320 g/ha): 70% | post-emergence efficacy SETVI ([11]; 80 g/ha): 90% | post-emergence efficacy SETVI ([11]; 320 g/ha): 90% | post-emergence efficacy VIOTR ([12]; 80 g/ha): 90% | post-emergence efficacy VIOTR ([12]; 320 g/ha): 90% | logP (HCOOH) [13]: solid; logP (HCOOH): 2.30; 1H NMR (CDCl3, 400 MHZ, δ in ppm): 2.15 (m, 1H, 1H | MATIN pre-emergence efficacy (herbicidal activity) ([14]; Dosage 80 g/ha): 100% | MATIN pre-emergence efficacy (herbicidal activity) ([14]; Dosage 320 g/ha): 100% | POLCO pre-emergence efficacy (herbicidal activity) ([15]; Dosage 80 g/ha): 100% | POLCO pre-emergence efficacy (herbicidal activity) ([15]; Dosage 320 g/ha): 100% | STEME pre-emergence efficacy (herbicidal activity) ([16]; Dosage 80 g/ha): 100% | STEME pre-emergence efficacy (herbicidal activity) ([16]; Dosage 320 g/ha): 100% | ECHCG pre-emergence efficacy (herbicidal activity) ([17]; Dosage 80 g/ha): 100% | ECHCG pre-emergence efficacy (herbicidal activity) ([17]; Dosage 320 g/ha): 100% | ALOMY pre-emergence efficacy (herbicidal activity) ([18]; Dosage 80 g/ha): 60% | ALOMY pre-emergence efficacy (herbicidal activity) ([18]; Dosage 320 g/ha): 100% | ABUTH pre-emergence efficacy (herbicidal activity) [19]: 100% | AVEFA pre-emergence efficacy (herbicidal activity) [20]: 100% | VERPE pre-emergence efficacy (herbicidal activity) ([21]; Dosage 80 g/ha): 100% | VERPE pre-emergence efficacy (herbicidal activity) ([21]; Dosage 320 g/ha): 100% | AMARE pre-emergence efficacy (herbicidal activity) ([22]; Dosage 80 g/ha): 100% | AMARE pre-emergence efficacy (herbicidal activity) ([22]; Dosage 320 g/ha): 100% | LOLMU pre-emergence efficacy (herbicidal activity) ([23]; Dosage 320 g/ha): 100% | SETVI pre-emergence efficacy (herbicidal activity) ([24]; Dosage 80 g/ha): 100% | SETVI pre-emergence efficacy (herbicidal activity) ([24]; Dosage 320 g/ha): 100% | VIOTR pre-emergence efficacy (herbicidal activity) ([25]; Dosage 80 g/ha): 100% | VIOTR pre-emergence efficacy (herbicidal activity) ([25]; Dosage 320 g/ha): 100%

Cc1cc2c(s1)CCC[C@H]2Nc1ncc(I)c(N)n1 [compound 173]
post-emergence efficacy MATIN ([1]; 80 g/ha): 60% | post-emergence efficacy MATIN ([1]; 320 g/ha): 90% | post-emergence efficacy POLCO ([2]; 320 g/ha): 60% | post-emergence efficacy STEME ([3]; 80 g/ha): 100% | post-emergence efficacy STEME ([3]; 320 g/ha): 100% | post-emergence efficacy ECHCG ([4]; 80 g/ha): 100% | post-emergence efficacy ECHCG ([4]; 320 g/ha): 100% | post-emergence efficacy ALOMY [5]: 100% | post-emergence efficacy ABUTH ([6]; 80 g/ha): 80% | post-emergence efficacy ABUTH ([6]; 320 g/ha): 90% | post-emergence efficacy PHBPU ([7]; 80 g/ha): 90% | post-emergence efficacy PHBPU ([7]; 320 g/ha): 100% | post-emergence efficacy AVEFA [8]: 90% | post-emergence efficacy VERPE [26]: 100% | post-emergence efficacy AMARE ([9]; 80 g/ha): 90% | post-emergence efficacy AMARE ([9]; 320 g/ha): 90% | post-emergence efficacy LOLMU ([10]; 80 g/ha): 60% | post-emergence efficacy LOLMU ([10]; 320 g/ha): 90% | post-emergence efficacy SETVI ([11]; 80 g/ha): 80% | post-emergence efficacy SETVI ([11]; 320 g/ha): 90% | post-emergence efficacy VIOTR ([12]; 80 g/ha): 90% | post-emergence efficacy VIOTR ([12]; 320 g/ha): 90% | CYPES pre-emergence efficacy (herbicidal activity) [27]: 60% | MATIN pre-emergence efficacy (herbicidal activity) ([14]; Dosage 80 g/ha): 100% | MATIN pre-emergence efficacy (herbicidal activity) ([14]; Dosage 320 g/ha): 100% | POLCO pre-emergence efficacy (herbicidal activity) ([15]; Dosage 80 g/ha): 90% | POLCO pre-emergence efficacy (herbicidal activity) ([15]; Dosage 320 g/ha): 100% | STEME pre-emergence efficacy (herbicidal activity) ([16]; Dosage 80 g/ha): 100% | STEME pre-emergence efficacy (herbicidal activity) ([16]; Dosage 320 g/ha): 100% | ECHCG pre-emergence efficacy (herbicidal activity) ([17]; Dosage 80 g/ha): 100% | ECHCG pre-emergence efficacy (herbicidal activity) ([17]; Dosage 320 g/ha): 100% | ALOMY pre-emergence efficacy (herbicidal activity) ([18]; Dosage 80 g/ha): 60% | ALOMY pre-emergence efficacy (herbicidal activity) ([18]; Dosage 320 g/ha): 80% | ABUTH pre-emergence efficacy (herbicidal activity) [19]: 100% | AVEFA pre-emergence efficacy (herbicidal activity) [20]: 60% | VERPE pre-emergence efficacy (herbicidal activity) ([21]; Dosage 80 g/ha): 90% | VERPE pre-emergence efficacy (herbicidal activity) ([21]; Dosage 320 g/ha): 100% | AMARE pre-emergence efficacy (herbicidal activity) ([22]; Dosage 80 g/ha): 100% | AMARE pre-emergence efficacy (herbicidal activity) ([22]; Dosage 320 g/ha): 100% | LOLMU pre-emergence efficacy (herbicidal activity) ([23]; Dosage 80 g/ha): 60% | LOLMU pre-emergence efficacy (herbicidal activity) ([23]; Dosage 320 g/ha): 100% | SETVI pre-emergence efficacy (herbicidal activity) ([24]; Dosage 80 g/ha): 90% | SETVI pre-emergence efficacy (herbicidal activity) ([24]; Dosage 320 g/ha): 100% | VIOTR pre-emergence efficacy (herbicidal activity) ([25]; Dosage 80 g/ha): 100% | VIOTR pre-emergence efficacy (herbicidal activity) ([25]; Dosage 320 g/ha): 100%
